# Measurements published in patent US8865657B2, “Compositions and methods for inactivating or suppressing inflammatory cells” (New York University, priority 2005, dated 2014).
# Read-outs that look alike come from different tables or passages of the source.
# What was measured:
# [1] = test system: Kupffer cells; assay: cAMP radioimmunoassay, intracellular cAMP in Kupffer cells; assay type: cell-based, rat
# Method: Liver cell isolation. […] The nonparenchymal cell-containing supernatant was saved.
# Cell culture. […] HepG2 cells were used on day 3 after plating.
# Cell treatment. […] Role of calcium and cyclic AMP. […] J Immunol 174: 2981-2989). […] IBMX was dissolved in dimethyl sulphoxide (DMSO).
# cAMP radioimmunoassay. For cAMP determination, liver cell cultures were incubated in culture medium without FCS at 37° C. for 0-90 min. The cultures were then placed on ice, and the reaction was stopped by aspiration of the incubation medium followed by the addition of 1 ml of ice cold 65% (vol/vol) ethanol. The cells were scraped into Eppendorf tubes and centrifuged at 10000 g for 10 min at 4° C. The supernatants were dried in SC110 Speedvac Concentrator (Savant, Farmingdale, N.Y.) at room temperature, and the dried extracts were dissolved in assay buffer for cAMP determination with cAMP [^125I] Direct Biotrak Assay from Amersham Biosciences (Piscataway, N.J.), according to the instructions of the manufacturer. Samples were analyzed with a Beckman LS 6000 scintillation counter. The cAMP level in each sample was normalized to the protein concentration and expressed as fmol/μg of protein. Ethanol-precipitated cell pellets were diluted with 0.15 M NaOH and the protein concentration was measured with the Micro BCA Protein Assay Kit (Pierce Chemical Co., Rockford, Ill.) according to manufacturer's instructions.
# [2] = test system: Kupffer cells; assay: Zymosan-induced respiratory burst (ROS) in Kupffer cells, luminol- or lucigenin-enhanced chemiluminescence
# Text: Liver cell isolation. Liver cells were isolated from female Sprague Dawley rats (230-250 g). Livers were perfused with collagenase as described by Neufeld (Neufeld DS (1997) Isolation of rat liver hepatocytes. Methods in Molecular Biology, Vol 75: Basic Cell Culture Protocols 75: 145-151). Subsequently, liver cells were purified by a combined differential and Percoll gradient centrifugation using a Sorvall HS4 swinging bucket rotor (Smedsrod B, Pertoft H (1985) Preparation of pure hepatocytes and reticuloendothelial cells in high yield from a single rat liver by means of Percoll centrifugation and selective adherence. J.Leukocyte Biol 38: 213-230). After filtration through a 100-μm mesh polypropylene filter (Spectra/Mesh; Spectrum, Laguna Hills, Calif.), the cell suspension was centrifuged for 5 minutes at 50 g resulting in a hepatocyte-enriched pellet and a nonparenchymal cell-enriched supernatant. The nonparenchymal cell-containing supernatant was saved. The pellet was resuspended in ice-cold phosphate-buffered saline (PBS) and mixed in an equal volume of PBS-buffered isotonic Percoll. The gradient was centrifuged for 10 minutes at 50 g. The pellet was resuspended in PBS, centrifuged again, and the final pellet was resuspended in RPMI 1640 medium containing 10% FCS. The nonparenchymal cell-enriched supernatants were centrifuged for 15 minutes at 900 g. The pellet was resuspended in ice-cold PBS, layered over a 2-cushion Percoll gradient (Smedsrod B, Pertoft H (1985) Preparation of pure hepatocytes and reticuloendothelial cells in high yield from a single rat liver by means of Percoll centrifugation and selective adherence. J.Leukocyte Biol 38: 213-230) and centrifuged for 30 minutes at 900 g. The intermediate zone, containing mostly liver endothelial cells, and the bottom cushion, containing mostly Kupffer cells, were saved, mixed with PBS, and centrifuged for 15 minutes at 900 g. The pellet was resuspended in PBS with 1% FCS and the cells further separated into various fractions by centrifugal counterflow elutriation (Knook D L, Sleyster E C (1976) Separation of Kupffer and endothelial cells of the rat liver by centrifugal elutriation. Exp Cell Res 99: 444-449) using the Beckman Coulter JE-5.0 elutriator rotor supplied with a Sanderson chamber (Beckman Coulter, Palo Alto, Calif. USA). The cell suspension was introduced into the elutriator at a flow rate of 12 ml/min, and the elutriator speed set to 3250 rpm. Endothelial cells were obtained at a 32 ml/min flow rate, whereas Kupffer cells were collected at 70 ml/min. The cells were centrifuged at 200 g and resuspended in RPMI-1640 medium containing 10% fetal calf serum. The cell purity and viability were above 95% as determined by peroxidase stain and trypan blue exclusion.
# Cell culture. Kupffer cells were seeded into 96-well microtiter plates (0.25×10^6 cells/well) or 24-well plates (1.0×10^6 cells/well). Endothelial cells were plated on 24-well plates (1.5×10^6 cells/well), which had been previously coated with type I collagen (Sigma, St. Louis, Mo.). […] All types of cells were cultivated in RPMI 1640 medium supplemented with 10% fetal calf serum (FCS), 25 mM HEPES, and antibiotics (100 U/ml penicillin G and 100 μg/ml streptomycin sulfate) at 37° C. in 5% CO2. Nonadherent cells were removed after 1 h by replacing medium, and the cells were cultured in the same medium for 18 h and then in RPMI-1640 without FCS for 6 h.
# Cell treatment. To study the effect of CSP on cell signaling, the cells were incubated with different concentration of CSP for 0-90 min at 37° C. in 5% CO2. Before use, CSP was dialyzed extensively with 150 mM NaCl, 10 mM HEPES, pH 7.4 and diluted in culture medium.
smiles,measurement,setting,value
"[O-][Cl+2]([O-])O [Chlorate, sodium chlorate, reference compound]",inhibition at 20000 µM,"[1]; Rattus norvegicus, read-out: inhibition of the CSP-induced generation of cAMP",20%
"CCCC(=O)Nc1ncnc2c1ncn2[C@@H]1O[C@@H]2COP(=O)(O)O[C@H]2[C@H]1OC(=O)CCC [db-cAMP, dibutyryl cAMP]",inhibition of the zymosan-induced respiratory burst,"[2]; 1 mM IBMX or 1 mM db-cAMP, luminol-enhanced chemiluminescence",22%
"Cl.Cl.O=S(=O)(NCCNCC=Cc1ccc(Br)cc1)c1cccc2cnccc12 [H-89, N-[2-(p-Bromocinnamylamino)ethyl]-5-isoquinolinesulfonamide dihydrochloride]",effect on the CSP-mediated inhibition of the respiratory burst,[2],failed to prevent
"Nc1ncnc2c1ncn2C1CCCO1 (stereo not drawn) [SQ 22,536, 9-(Tetrahydro-2-furanyl)-9H-purin-6-amine]",effect on the inhibition of the zymosan-induced respiratory burst by sporozoites,"[2]; 100 μM SQ 22,536 with P. yoelii sporozoites",abrogated the inhibitory effect
"CC(C)Cn1c(=O)n(C)c(=O)c2[nH]cnc21 [IBMX, 3-isobutyl-1 methylxanthine, reference compound]",inhibition at 1000 µM,"[2]; Rattus norvegicus, read-out: inhibition of the zymosan-induced respiratory burst",67%
same,effect on the CSP-induced generation of cAMP,"[1]; added 10 min before 50 nM CSP (30 min), RAP 500 nM",did not reduce
C[C@]12N[C@H](Cc3ccccc31)c1ccccc12 [MK-801],effect on the CSP-mediated inhibition of the respiratory burst,[2],had no effect
"CCCC(=O)Nc1ncnc2c1ncn2[C@@H]1O[C@@H]2COP(=O)(O)O[C@H]2[C@H]1O [6-MB-cAMP, N6-monobutyryladenosine-3′,5′-cAMP]",effect on zymosan-induced ROS formation,"[2]; 3 mM, pretreated 40 minutes, luminol-enhanced chemiluminescence",had no effect
"CO[C@@H]1[C@@H]2OP(=O)(O)OC[C@H]2O[C@H]1n1c(Sc2ccc(Cl)cc2)nc2c(N)ncnc21 [8-CPT-2-Me-cAMP, 8-[4-chlorophenylthio]-2′-O-methyladenosine-3′,5′-cAMP]",effect on zymosan-induced ROS formation,[2],inhibited
